[NH3+]O.[NH3+]O.[O-]n1nnnc1-c1nnnn1[O-]
solubility (mole fraction) (in DMF, 293.15 K): 6.38e-05
solubility (mole fraction) (in DMF, 298.15 K): 7.18e-05
solubility (mole fraction) (in DMF, 303.15 K): 9.56e-05
solubility (mole fraction) (in DMF, 308.15 K): 0.000142
solubility (mole fraction) (in DMF, 313.15 K): 0.000183
solubility (mole fraction) (in DMF, 318.15 K): 0.000225
solubility (mole fraction) (in DMF, 323.15 K): 0.000269
solubility (mole fraction) (in DMSO, 293.15 K): 0.00122
solubility (mole fraction) (in DMSO, 298.15 K): 0.00131
solubility (mole fraction) (in DMSO, 303.15 K): 0.00149
solubility (mole fraction) (in DMSO, 308.15 K): 0.00159
solubility (mole fraction) (in DMSO, 313.15 K): 0.00179
solubility (mole fraction) (in DMSO, 318.15 K): 0.00191
solubility (mole fraction) (in DMSO, 323.15 K): 0.00211
solubility (mole fraction) (in ethanol, 293.15 K): 3.87e-06
solubility (mole fraction) (in ethanol, 298.15 K): 4.82e-06
solubility (mole fraction) (in ethanol, 303.15 K): 5.92e-06
solubility (mole fraction) (in ethanol, 308.15 K): 7.19e-06
solubility (mole fraction) (in ethanol, 313.15 K): 8.16e-06
solubility (mole fraction) (in ethanol, 318.15 K): 9.64e-06
solubility (mole fraction) (in ethanol, 323.15 K): 1.21e-05
solubility (mole fraction) (in ethyl acetate, 293.15 K): 1.93e-06
solubility (mole fraction) (in ethyl acetate, 298.15 K): 2.16e-06
solubility (mole fraction) (in ethyl acetate, 303.15 K): 2.37e-06
solubility (mole fraction) (in ethyl acetate, 308.15 K): 2.72e-06
solubility (mole fraction) (in ethyl acetate, 313.15 K): 3.16e-06
solubility (mole fraction) (in ethyl acetate, 318.15 K): 3.56e-06
solubility (mole fraction) (in ethyl acetate, 323.15 K): 3.92e-06
solubility (mole fraction) (in formic acid, 293.15 K): 0.000213
solubility (mole fraction) (in formic acid, 298.15 K): 0.000231
solubility (mole fraction) (in formic acid, 303.15 K): 0.00025
solubility (mole fraction) (in formic acid, 308.15 K): 0.00028
solubility (mole fraction) (in formic acid, 313.15 K): 0.000302
solubility (mole fraction) (in formic acid, 318.15 K): 0.000347
solubility (mole fraction) (in formic acid, 323.15 K): 0.000392
solubility (mole fraction) (in toluene, 293.15 K): 1.85e-05
solubility (mole fraction) (in toluene, 298.15 K): 2.2e-05
solubility (mole fraction) (in toluene, 303.15 K): 2.44e-05
solubility (mole fraction) (in toluene, 308.15 K): 2.6e-05
solubility (mole fraction) (in toluene, 313.15 K): 2.89e-05
solubility (mole fraction) (in toluene, 318.15 K): 3.24e-05
solubility (mole fraction) (in toluene, 323.15 K): 3.69e-05
solubility (mole fraction) (in water, 293.15 K): 2.42e-05
solubility (mole fraction) (in water, 298.15 K): 2.83e-05
solubility (mole fraction) (in water, 303.15 K): 3.29e-05
solubility (mole fraction) (in water, 308.15 K): 3.59e-05
solubility (mole fraction) (in water, 313.15 K): 4.17e-05
solubility (mole fraction) (in water, 318.15 K): 4.84e-05
solubility (mole fraction) (in water, 323.15 K): 5.5e-05

Source: BigSolDB 2.1
